From paper PMC4580457, “Use of Labelled tLyP-1 as a Novel Ligand Targeting the NRP Receptor to Image Glioma” (PLoS ONE, 2015)
Peptide text beside a SMILES is read from it. * marks the point of attachment. 5FAM = O=C1OC2(c3ccc(O)cc3Oc3cc(O)ccc32)c2ccc(C(=O)*)cc21

Assay: in vivo
Set-up: species or system BALB/C athymic nude mice
Settings: BALB/C athymic nude, mouse, iv, 150 uL of 1 mM, T/NT ratio
Method: Mice with U87MG tumor xenografts (n = 10) were randomly divided into an experimental group (n = 5) and control group (n = 5). The mice in the experimental group were intravenously injected with 150 μL of FAM-tLyP-1 (1mM), while the control group received 150 μL of FAM-labeled control peptide (1mM). The mice were sacrificed after 1 h by cervical dislocation under ketamine/xylazine anesthesia. The tumor and normal organs were then removed, washed with PBS at least three times, and then collected for imaging ex vivo. FAM-tLyP-1 uptake in the tumor and normal organs was described by a blinded observer under blue light with an exposure time of 60 s, using the Kodak in-Vivo Imaging System F (Kodak, American), and processed for fluorescence intensity analysis. The fluorescence intensity was analyzed visually based on the brightness of the green light indicating uptake of FAM-tLyP-1.
The intensity of FAM-tLyP-1 uptake in the tumor and normal organs was analyzed blindly using the Kodak MI analysis software (Kodak, American). The fluorescence intensity was analyzed visually from high to low levels based on a color scale of white, red, yellow, green, blue, and black. Regions of interest (ROIs) were drawn around the border of the tumor and normal organs on the fluorescence images and the average fluorescence intensity was measured. The tumor/non-tumor ratios (T/NT ratios) were calculated by dividing the fluorescence intensity in the tumor by that of the normal organs.

| Structure (SMILES) | tissue to tissue ratio at 1 h (T/brain) | tissue to tissue ratio at 1 h (T/heart) | tissue to tissue ratio at 1 h (T/intestine) | tissue to tissue ratio at 1 h (T/kidney) | tissue to tissue ratio at 1 h (T/liver) | tissue to tissue ratio at 1 h (T/lung) | tissue to tissue ratio at 1 h (T/muscle) | tissue to tissue ratio at 1 h (T/spleen) |
| --- | --- | --- | --- | --- | --- | --- | --- | --- |
| CSCC[C@H](N)C(=O)N[C@@H](C)C(=O)N[C@@H](CCC(N)=O)C(=O)N[C@@H](CCCCNC(=O)c1ccc2c(c1)C(=O)OC21c2ccc(O)cc2Oc2cc(O)ccc21)C(=O)N[C@H](C(=O)N[C@@H](CO)C(=O)N[C@@H](Cc1c[nH]cn1)C(=O)O)[C@@H](C)O [FAM-control peptide] (H-MAQK(5FAM)TSH-OH) | 1.32 ± 0.15 | 1.94 ± 0.26 | 0.87 ± 0.3 | 0.57 ± 0.51 | 1.28 ± 0.25 | 1.4 ± 0.1 | 1.31 ± 0.14 | 1.75 ± 0.17 |
| C[C@@H](O)[C@H](NC(=O)[C@H](CCCNC(=N)N)NC(=O)[C@H](CCCCNC(=O)c1ccc2c(c1)C(=O)OC21c2ccc(O)cc2Oc2cc(O)ccc21)NC(=O)[C@H](CC(N)=O)NC(=O)CNC(=O)[C@@H](N)CS)C(=O)N[C@@H](CCCNC(=N)N)C(=O)O [FAM-tLyP-1] (H-CGNK(5FAM)RTR-OH) | 3.44 ± 0.83 | 4.61 ± 1 | 0.84 ± 0.35 | 0.88 ± 0.74 | 2.34 ± 0.36 | 3.29 ± 0.79 | 2.87 ± 0.45 | – |
